Measurements: the supplement of paper PMC10307832

Experiments:
Assay in all cases: relative viability (nuclei count vs DMSO), 5 days (fraction); higher = more cells survive
Alisertib + Crizotinib = compound: COc1cc(Nc2ncc3c(n2)-c2ccc(Cl)cc2C(c2c(F)cccc2OC)=NC3)ccc1C(=O)O [Alisertib] + C[C@@H](Oc1cc(-c2cnn(C3CCNCC3)c2)cnc1N)c1c(Cl)ccc(F)c1Cl [Crizotinib] (partner 1 µM)
Procedure, shortened: (§1)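 For relative viability, nuclei counts in treated wells were divided by those in vehicle wells. Lung cancer cell lines had been pin-tool dosed in 1536-well plates the day after seeding and cultured for 5 days, then fixed and stained in one step (final 0.05% Triton X-100, 1% formaldehyde, 1 ug/ml Hoechst) and imaged at 4×. Doses were one drug alone or a fixed anchor-drug dose plus five library-drug doses (not always all listed) in √10 steps, and values are duplicate-plate medians.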

Alisertib + Palbociclib = compound: COc1cc(Nc2ncc3c(n2)-c2ccc(Cl)cc2C(c2c(F)cccc2OC)=NC3)ccc1C(=O)O [Alisertib] + CC(=O)c1c(C)c2cnc(Nc3ccc(N4CCNCC4)cn3)nc2n(C2CCCC2)c1=O [Palbociclib] (partner 0.5 µM)
Procedure, shortened: as §1

Alisertib + Vorinostat = compound: COc1cc(Nc2ncc3c(n2)-c2ccc(Cl)cc2C(c2c(F)cccc2OC)=NC3)ccc1C(=O)O [Alisertib] + O=C(CCCCCCC(=O)Nc1ccccc1)NO [Vorinostat] (partner 1 µM)
Procedure, shortened: as §1

Alisertib + AZD7762 = compound: COc1cc(Nc2ncc3c(n2)-c2ccc(Cl)cc2C(c2c(F)cccc2OC)=NC3)ccc1C(=O)O [Alisertib] + NC(=O)Nc1cc(-c2cccc(F)c2)sc1C(=O)N[C@H]1CCCNC1 [AZD7762] (partner 0.2 µM)
Procedure, shortened: as §1

| Cell Line | relative viability (Alisertib + Crizotinib; first compound 0.005 µM) | relative viability (Alisertib + Crizotinib; first compound 0.01581 µM) | relative viability (Alisertib + Crizotinib; first compound 0.05 µM) | relative viability (Alisertib + Crizotinib; first compound 0.1581 µM) | relative viability (Alisertib + Crizotinib; first compound 0.5 µM) | relative viability (Alisertib + Palbociclib; first compound 0.005 µM) | relative viability (Alisertib + Palbociclib; first compound 0.01581 µM) | relative viability (Alisertib + Palbociclib; first compound 0.05 µM) | relative viability (Alisertib + Palbociclib; first compound 0.1581 µM) | relative viability (Alisertib + Palbociclib; first compound 0.5 µM) | relative viability (Alisertib + Vorinostat; first compound 0.005 µM) | relative viability (Alisertib + Vorinostat; first compound 0.01581 µM) | relative viability (Alisertib + Vorinostat; first compound 0.05 µM) | relative viability (Alisertib + Vorinostat; first compound 0.1581 µM) | relative viability (Alisertib + Vorinostat; first compound 0.5 µM) | relative viability (Alisertib + AZD7762; first compound 0.005 µM) | relative viability (Alisertib + AZD7762; first compound 0.01581 µM) | relative viability (Alisertib + AZD7762; first compound 0.05 µM) | relative viability (Alisertib + AZD7762; first compound 0.1581 µM) | relative viability (Alisertib + AZD7762; first compound 0.5 µM) |
| --- | --- | --- | --- | --- | --- | --- | --- | --- | --- | --- | --- | --- | --- | --- | --- | --- | --- | --- | --- | --- |
| A549 | 0.611 | 0.197 | 0.0682 | 0.0571 | 0.0624 | – | – | – | – | – | – | – | – | – | – | – | – | – | – | – |
| COR-L23 | 0.571 | 0.48 | 0.17 | 0.151 | 0.102 | 0.253 | 0.234 | 0.142 | 0.112 | 0.0947 | 0.347 | 0.35 | 0.151 | 0.09 | 0.0909 | – | – | – | – | – |
| COR-L 105 | 0.857 | 0.587 | 0.621 | 0.523 | 0.251 | 0.368 | 0.417 | 0.356 | 0.33 | 0.37 | 0.687 | 0.701 | 0.496 | 0.302 | 0.321 | – | – | – | – | – |
| Calu-6 | 0.697 | 0.334 | 0.204 | 0.227 | 0.198 | – | – | – | – | – | – | – | – | – | – | – | – | – | – | – |
| EBC-1 | 0.177 | 0.189 | 0.174 | 0.139 | 0.155 | – | – | – | – | – | – | – | – | – | – | – | – | – | – | – |
| IA-LM | 0.831 | 0.608 | 0.485 | 0.256 | 0.104 | – | – | – | – | – | 0.986 | 0.87 | 0.564 | 0.189 | 0.0645 | – | – | – | – | – |
| NCI-H520 | 0.589 | 0.38 | 0.286 | 0.296 | 0.243 | 0.196 | 0.232 | 0.214 | 0.177 | 0.155 | 0.588 | 0.455 | 0.325 | 0.276 | 0.208 | – | – | – | – | – |
| NCI-H522 | – | – | – | – | – | 0.877 | 1.14 | 0.975 | 0.76 | 0.519 | 0.823 | 0.897 | 0.822 | 0.521 | 0.549 | 0.818 | 0.843 | 0.785 | 0.406 | 0.411 |
| NCI-H596 | – | 0.882 | 0.882 | 0.719 | 0.504 | – | – | – | – | – | 0.514 | 0.655 | 0.616 | 0.488 | 0.311 | 0.96 | 1.02 | 1.15 | 0.926 | 0.66 |
| NCI-H661 | 1.05 | 1.02 | 0.48 | 0.392 | 0.504 | 0.414 | 0.401 | 0.367 | 0.296 | 0.294 | 0.771 | 0.729 | 0.435 | 0.355 | 0.276 | – | – | – | – | – |
| NCI-H1299 | 0.965 | 0.727 | 0.671 | 0.348 | 0.252 | – | – | – | – | – | – | – | – | – | – | – | – | – | – | – |
| NCI-H1395 | – | – | – | – | – | 0.603 | 0.6 | 0.597 | 0.44 | 0.388 | 0.667 | 0.588 | 0.442 | 0.385 | 0.321 | 0.363 | 0.403 | 0.37 | 0.376 | 0.361 |
| NCI-H1563 | 0.741 | 0.911 | 0.788 | 0.809 | 0.601 | – | – | – | – | – | – | – | – | – | – | – | – | – | – | – |
| NCI-H1650 | 0.975 | 0.71 | 0.359 | 0.255 | 0.276 | 0.292 | 0.328 | 0.233 | 0.116 | 0.188 | 0.57 | 0.488 | 0.388 | 0.176 | 0.185 | – | – | – | – | – |
| NCI-H1703 | 0.711 | 0.501 | 0.294 | 0.37 | 0.113 | – | – | – | – | – | – | – | – | – | – | 0.119 | 0.134 | 0.115 | 0.0952 | 0.0979 |
| NCI-H1792 | 0.939 | 0.91 | 0.543 | 0.201 | 0.0858 | 0.697 | 0.522 | 0.423 | 0.343 | 0.169 | – | – | – | – | – | 0.571 | 0.343 | 0.135 | 0.0427 | 0.0721 |
| NCI-H2009 | 0.927 | 0.916 | 0.453 | 0.238 | 0.175 | 0.171 | 0.199 | 0.117 | 0.124 | 0.123 | 0.684 | 0.699 | 0.234 | 0.204 | 0.134 | – | – | – | – | – |
| NCI-H2023 | 0.721 | 0.64 | 0.345 | 0.142 | 0.112 | 0.349 | 0.288 | 0.174 | 0.125 | 0.0948 | 0.565 | 0.31 | 0.215 | 0.12 | 0.0981 | – | – | – | – | – |
| NCI-H2228 | 0.686 | 0.406 | 0.301 | 0.168 | 0.188 | 0.641 | 0.689 | 0.378 | 0.118 | 0.125 | 0.544 | 0.671 | 0.373 | 0.0949 | 0.104 | – | – | – | – | – |
| SK-LU-1 | 0.775 | 0.628 | 0.389 | 0.362 | 0.239 | 0.395 | 0.364 | 0.22 | 0.242 | 0.236 | 0.749 | 0.427 | 0.287 | 0.251 | 0.246 | – | – | – | – | – |
| SK-MES-1 | 0.914 | 0.801 | 0.673 | 0.25 | 0.18 | 0.316 | 0.346 | 0.29 | 0.226 | 0.161 | 0.954 | 0.976 | 0.365 | 0.206 | 0.216 | – | – | – | – | – |
| SW 1573 | 0.776 | 0.466 | 0.434 | 0.248 | 0.113 | 0.304 | 0.27 | 0.152 | 0.134 | 0.117 | 0.803 | 0.288 | 0.239 | 0.233 | 0.109 | – | – | – | – | – |
| UMC-11 | 0.515 | 0.285 | 0.117 | 0.103 | 0.0832 | 0.331 | 0.289 | 0.248 | 0.223 | 0.275 | 0.262 | 0.169 | 0.113 | 0.118 | 0.161 | – | – | – | – | – |
